Data taken from patent US12251387B2, “Substituted quinoxalines and benzo[c][1,2,5]oxadiazoles as DNA-PK inhibitors” (Vertex Pharmaceuticals Incorporated, priority 2013, dated 2025).

Molecular target: DNA-PK (Homo sapiens, UniProt P78527)
Assay: DNA-PK Inhibition Assay (standard radiometric kinase assay, 33P-ATP, peptide substrate)
Assay type: biochemical
Settings: radiometric assay, approximately 6 nM DNA-PK, 100 μM ATP, 45 min; fit to competitive tight-binding inhibition; read-out: Ki for the inhibition of DNA-PK
Summary of the method: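 Radiometric transfer of 33P from ATP (100 μM) to peptide substrate (0.8 mg/mL) by about 6 nM DNA-PK with 10 μg/mL sheared dsDNA, pH 7.5 HEPES/MgCl2, 45 min, phosphoric acid quench, filter capture and scintillation counting. Ki fitted to a competitive tight-binding inhibition model.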

Compound	Ki [nM]
CCOc1cccc(N[C@H]2CC[C@@H](Oc3cc(N4CCOCC4)cc4nccnc34)CC2)n1 [Compound 588]	< 100
OCc1cnc(N[C@H]2CC[C@@H](Oc3cc(N4CCOCC4)cc4nccnc34)CC2)cn1 [Compound 577]	< 100
CN(C)C(=O)c1cc(N[C@H]2CC[C@@H](Oc3cc(N4CCOCC4)cc4nccnc34)CC2)ncn1 [Compound 361]	< 100
Cc1nc(N[C@H]2CC[C@@H](Oc3cc(N4CCOCC4)cc4nccnc34)CC2)ncc1F [Compound 476]	< 100
Cn1nc(N[C@H]2CC[C@@H](Oc3cc(N4CCOCC4)cc4nccnc34)CC2)c2ccccc21 [Compound 298]	< 100
COCCOc1cc(N[C@H]2CC[C@@H](Oc3cc(N4CCOCC4)cc4nccnc34)CC2)ncn1 [Compound 539]	< 100
CN(C)CCOc1cnc(N[C@H]2CC[C@@H](Oc3cc(N4CCOCC4)cc4nccnc34)CC2)nc1 [Compound 624]	< 100
Cc1cc(N[C@H]2CC[C@@H](Oc3cc(N4CCOCC4)cc4nccnc34)CC2)n[nH]c1=O [Compound 599]	< 100
CN1CCC(c2cnc(N(C)[C@H]3CC[C@@H](Oc4cc(N5CCOCC5)cc5nccnc45)CC3)nc2)CC1 [Compound 657]	< 100
Cc1nc(N[C@H]2CC[C@@H](Oc3cc(N4CCOCC4)cc4nccnc34)CC2)cc(C2CC2)n1 [Compound 636]	< 100

More lines, now with the values ahead:

Ki [nM]	Compound
< 100	CC(C)Oc1cc(N[C@H]2CC[C@@H](Oc3cc(N4CCOCC4)cc4nccnc34)CC2)ccn1 [Compound 349]
< 100	Cc1cnc(C)c(N[C@H]2CC[C@@H](Oc3cc(N4CCOCC4)cc4nccnc34)CC2)n1 [Compound 333]
< 100	Clc1nccc(N[C@H]2CC[C@@H](Oc3cc(N4CCOCC4)cc4nccnc34)CC2)n1 [Compound 533]
< 100	c1cnc2c(O[C@H]3CC[C@@H](Nc4ncc(CCN5CCCC5)cn4)CC3)cc(N3CCOCC3)cc2n1 [Compound 432]
< 100	Cc1cncc(N[C@H]2CC[C@@H](Oc3cc(N4CCOCC4)cc4nccnc34)CC2)n1 [Compound 373]
< 100	O=C(NCC1CCCCC1)N[C@H]1CC[C@@H](Oc2cc(N3CCOCC3)cc3nccnc23)CC1 [Compound 410]
< 100	CNC(=O)c1ccnc(N[C@H]2CC[C@@H](Oc3cc(N4CC5CC(C4)O5)cc4nccnc34)CC2)n1 [Compound 317]
< 100	CN(C)CCc1cnc(N[C@H]2CC[C@@H](Oc3cc(N4CCOCC4)cc4nccnc34)CC2)nc1 [Compound 431]
< 100	c1nc2c(c(N[C@H]3CC[C@@H](Oc4cc(N5CCOCC5)cc5nccnc45)CC3)n1)OCC2 [Compound 464]
